According to patent publication US20200390100A1, “SUBSTITUTED N-HETEROCYCLYL- AND N-HETEROARYL-TETRAHYDROPYRIMIDINONES AND THE SALTS THEREOF, AND THE USE OF SAME AS HERBICIDAL ACTIVE SUBSTANCES” (Bayer Aktiengesellschaft, priority 2017, published 2020):
Where two headings read alike, the source gives them in different places.

Columns and labels:
photosystem II (PS II) = biological target: T1, photosystem II (PS II) (Spinacia oleracea, UniProt P69560); assay: Measurement of PS II activity in thylakoid membranes (DCPIP reduction); type: biochemical, spinach; conditions: read-out: Effect
T1 construct: the chloroplasts were osmotically ruptured and the thylakoid membranes were then obtained by centrifugation; from tissue; host or cells: fresh spinach leaves; thylakoid membrane preparation from isolated chloroplasts
Method: Cooled fresh spinach leaves were comminuted and homogenized in 50 mM phosphate buffer, pH 6.8. 10 mM KCl, 0.34 M sucrose (sucrose buffer) (blender, 1 g of plant material/ml). The homogenate was subsequently filtered through 4 layers of Miracloth and the chloroplasts were isolated by centrifugation, i.e. 10 min of centrifugation at 4400×g (4° C.). The sediment was suspended in 25 ml of sucrose buffer and re-centrifuged for 10 min at 4400×g (4° C.). The sediment was then suspended in 40 ml of 50 mM phosphate buffer, pH 6.8, 10 mM KCl, without sucrose. In this step, the chloroplasts were osmotically ruptured and the thylakoid membranes were then obtained by centrifugation (10 min, 4400×g, 4° C.). The membrane sediment was finally suspended in about 20 ml of 50 mM phosphate buffer, pH 6.8, 10 mM KCl. Following protein determination and activity determination, the membrane suspension was divided into aliquots and frozen in liquid nitrogen. The aliquots were stored at −80° C. Under these conditions, the photosystem II preparation was storage stable for at least three months. The activity determination of photosystem II (PS II) was then carried out using the following test principle: The electron transfer from PS II to an artificial electron acceptor, 2,6-dichlorophenolindophenol (DCPIP), was measured with exposure to light. The concentration of the blue oxidized form of DCPIP was determined spectrophotometrically at wavelength λ=595 nm. […] The activity determination is carried out in microtiter plates (96 cavities) in a reaction volume of 200 μl. Here, 155 μl of dilute membrane suspension were initially charged in 50 mM of phosphate buffer, pH 6.8, 10 mM KCl. Depending on the activity of the PS II preparation, the dilution was adjusted such that the measurement of the decrease in absorption (λ=595 nm) was linear for at least 10 min. In each case 5 μl solutions of the test compounds of a concentration of 100 μM in DMSO were added to the enzyme suspension; controls contained 5 μl of DMSO; the final concentration of DMSO in the reaction batch was thus 2.5% (v/v); this concentration had no adverse effect on the enzymatic activity. On each microtiter plate, a known PS II inhibitor, for example metribuzin, was used as standard, which allowed the quality of the PS II test to be assessed. The reaction was started by addition of 40 μl DCPIP solution (600 μM in distilled water); the final concentration of DCPIP was 120 μM. Measurement of absorption is carried out over a period of 10 min at 22° C. and with exposure to light. Using metribuzin as comparative substance, the results for the efficacy of the compounds of the general formula (I) at 100 μM are stated in the table below using the following classification: ++++(inhibition≥90%), +++(90%>inhibition≥70%), ++(70%>inhibition≥50%), +(50%>inhibition≥30%).

Echinochloa crus-galli = assay: Herbicidal pre-emergence action (Part 2), 1280 g/ha; type: in vivo; conditions: application rate 1280 g/ha, scored visually after about 3 weeks, Table D1
From the text: (§1) Seeds of mono- and dicotyledonous weed plants were placed in plastic pots in sandy loam soil (doubly sown with in each case one species of mono- or dicotyledonous weed plants per pot) and covered with soil. The compounds of the invention, formulated in the form of wettable powders (WP) or as emulsion concentrates (EC), were then applied onto the surface of the covering soil as aqueous suspension or emulsion with addition of 0.5% additive at a water application rate of 600 liters per hectare (converted). After the treatment, the pots were placed in a greenhouse and kept under good growth conditions for the test plants. After about 3 weeks, the effect of the preparations was scored visually in comparison with untreated controls as percentages. For example, 100% activity=the plants have died, 0% activity=like control plants. Tables D1 to D8 below show the effects of selected compounds of the general formula (I) according to Tables 1.1 to 1.150 on various harmful plants and at an application rate corresponding to 1280 g/ha, which were obtained by the experimental procedure mentioned above.

Abutilon theophrasti [1] = assay: Post-emergence herbicidal action, greenhouse, 320 g/ha; type: in vivo; conditions: application rate 320 g/ha, rated visually after about 3 weeks vs untreated controls
Method: (§2) Seeds of monocotyledonous and dicotyledonous weeds and crop plants were placed in sandy loam in plastic or wood-fiber pots, covered with soil and cultivated in a greenhouse under controlled growth conditions. 2 to 3 weeks after sowing, the test plants were treated at the one-leaf stage. The compounds of the invention, formulated in the form of wettable powders (WP) or as emulsion concentrates (EC), were then sprayed onto the green parts of the plants as aqueous suspension or emulsion with addition of 0.5% additive at a water application rate of […] (converted). After the test plants had been kept in the greenhouse under optimum growth conditions for about 3 weeks, the activity of the preparations was rated visually in comparison to untreated controls. For example, 100% activity=the plants have died, 0% activity=like control plants. Tables A1 to A14 below show the effects of selected compounds of the general formula (I) according to Tables 1.1 to 1.150 on various harmful plants and at an application rate corresponding to 320 g/ha, which were obtained by the experimental procedure mentioned above.

Amaranthus retroflexus [2] = assay: as above; type: in vivo; conditions: application rate 320 g/ha, rated visually after about 3 weeks vs untreated controls
Method: as §2

Matricaria inodora [3] = assay: as above; type: in vivo; conditions: application rate 320 g/ha, rated visually after about 3 weeks vs untreated controls
Method: as §2

Pharbitis purpurea [4] = assay: as above; type: in vivo; conditions: application rate 320 g/ha, rated visually after about 3 weeks vs untreated controls
Method: as §2

Polygonum convolvulus [5] = assay: as above; type: in vivo; conditions: application rate 320 g/ha, rated visually after about 3 weeks vs untreated controls
Method: as §2

Setaria viridis [6] = assay: as above; type: in vivo; conditions: application rate 320 g/ha, rated visually after about 3 weeks vs untreated controls
Method: as §2

Stellaria media [7] = assay: as above; type: in vivo; conditions: application rate 320 g/ha, rated visually after about 3 weeks vs untreated controls
Method: as §2

Abutilon theophrasti [8] = assay: Pre-emergence herbicidal action, greenhouse, 320 g/ha; type: in vivo; conditions: application rate 320 g/ha, scored visually after about 3 weeks vs untreated controls
From the text: (§3) Seeds of monocotyledonous and dicotyledonous weed plants and crop plants were placed in plastic or organic planting pots and covered with soil. The compounds of the invention, formulated in the form of wettable powders (WP) or as emulsion concentrates (EC), were then applied to the surface of the covering soil as aqueous suspension or emulsion with addition of 0.5% additive at a water application rate equivalent to […]. After the treatment, the pots were placed in a greenhouse and kept under good growth conditions for the test plants. After about 3 weeks, the effect of the preparations is scored visually in comparison with untreated controls as percentages. For example, 100% activity=the plants have died, 0% activity=like control plants. Tables B1 to B14 below show the effects of selected compounds of the general formula (I) according to Tables I.1 to I.150 on various harmful plants and at an application rate corresponding to 320 g/ha, which were obtained by the experimental procedure mentioned above.

Alopecurus myosuroides = assay: as above; type: in vivo; conditions: application rate 320 g/ha, scored visually after about 3 weeks vs untreated controls
From the text: as §3

Amaranthus retroflexus [9] = assay: as above; type: in vivo; conditions: application rate 320 g/ha, scored visually after about 3 weeks vs untreated controls
From the text: as §3

Avena fatua = assay: as above; type: in vivo; conditions: application rate 320 g/ha, scored visually after about 3 weeks vs untreated controls
From the text: as §3

Digitaria sanguinalis = assay: as above; type: in vivo; conditions: application rate 320 g/ha, Table B9
From the text: as §3

Hordeum murinum = assay: as above; type: in vivo; conditions: application rate 320 g/ha, Table B14
From the text: as §3

Matricaria inodora [10] = assay: as above; type: in vivo; conditions: application rate 320 g/ha, scored visually after about 3 weeks vs untreated controls
From the text: as §3

Pharbitis purpurea [11] = assay: as above; type: in vivo; conditions: application rate 320 g/ha, Table B12
From the text: as §3

Polygonum convolvulus [12] = assay: as above; type: in vivo; conditions: application rate 320 g/ha, scored visually after about 3 weeks vs untreated controls
From the text: as §3

Setaria viridis [13] = assay: as above; type: in vivo; conditions: application rate 320 g/ha, Table B11
From the text: as §3

Stellaria media [14] = assay: as above; type: in vivo; conditions: application rate 320 g/ha, scored visually after about 3 weeks vs untreated controls
From the text: as §3

Viola tricolor [15] = assay: as above; type: in vivo; conditions: application rate 320 g/ha, Table B8
From the text: as §3

Viola tricolor [16] = assay: Post-emergence herbicidal action, greenhouse, 320 g/ha; type: in vivo; conditions: application rate 320 g/ha, rated visually after about 3 weeks vs untreated controls
Method: as §2

Amaranthus retroflexus [17] = assay: Herbicidal post-emergence action (Part 2), 1280 g/ha; type: in vivo; conditions: application rate 1280 g/ha, rated visually after about 3 weeks, Table C5
Method: (§4) Seeds of mono- and dicotyledonous weed plants were placed in plastic pots in sandy loam soil (doubly sown with in each case one species of mono- or dicotyledonous weed plants per pot), covered with soil and cultivated in a greenhouse under controlled growth conditions. 2 to 3 weeks after sowing, the test plants were treated at the one-leaf stage. The compounds of the invention, formulated in the form of wettable powders (WP) or as emulsion concentrates (EC), were applied onto the green parts of the plants as aqueous suspension or emulsion with addition of 0.5% additive at a water application rate of 600 liters per hectare (converted). After the test plants had been kept in the greenhouse under optimum growth conditions for about 3 weeks, the activity of the preparations was rated visually in comparison to untreated controls. For example, 100% activity=the plants have died, 0% activity=like control plants. Tables C1 to C7 below show the effects of selected compounds of the general formula (I) according to Tables 1.1 to 1.150 on various harmful plants and at an application rate corresponding to 1280 g/ha, which were obtained by the experimental procedure mentioned above.

Poa annua [18] = assay: as above; type: in vivo; conditions: application rate 1280 g/ha, rated visually after about 3 weeks, Table C2
Method: as §4

Abutilon theophrasti [19] = assay: Herbicidal pre-emergence action (Part 2), 1280 g/ha; type: in vivo; conditions: application rate 1280 g/ha, scored visually after about 3 weeks, Table D5
From the text: as §1

Matricaria inodora [20] = assay: as above; type: in vivo; conditions: application rate 1280 g/ha, scored visually after about 3 weeks, Table D7
From the text: as §1

Poa annua [21] = assay: as above; type: in vivo; conditions: application rate 1280 g/ha, scored visually after about 3 weeks, Table D3
From the text: as §1

Veronica persica = assay: Pre-emergence herbicidal action, greenhouse, 320 g/ha; type: in vivo; conditions: application rate 320 g/ha, Table B13
From the text: as §3

[22] = PS II activity in spinach thylakoid membranes, Table E1

Row | inhibition at 100 µM (photosystem II (PS II); [22]) [%] | Compound | Abutilon theophrasti (efficacy in %) (Abutilon theophrasti [1]) [%] | Amaranthus retroflexus (efficacy in %) (Amaranthus retroflexus [2]) [%] | Matricaria inodora (efficacy in %) (Matricaria inodora [3]) [%] | Setaria viridis (efficacy in %) (Setaria viridis [6]) [%] | Stellaria media (efficacy in %) (Stellaria media [7]) [%] | Alopecurus myosuroides (efficacy in %) (Alopecurus myosuroides) [%] | Amaranthus retroflexus (efficacy in %) (Amaranthus retroflexus [9]) [%] | Digitaria sanguinalis (efficacy in %) (Digitaria sanguinalis) [%] | Matricaria inodora (efficacy in %) (Matricaria inodora [10]) [%] | Pharbitis purpurea (efficacy in %) (Pharbitis purpurea [11]) [%] | Polygonum convolvulus (efficacy in %) (Polygonum convolvulus [12]) [%] | Stellaria media (efficacy in %) (Stellaria media [14]) [%] | Viola tricolor (efficacy in %) (Viola tricolor [15]) [%] | other results
1 | – | CSc1nnc(C(C)(C)C)c(=O)n1N [Metribuzin, metribuzin, reference compound] | – | – | – | – | – | – | – | – | – | – | – | – | – | inhibition at 100 µM (photosystem II (PS II)): > 90%
2 | > 90 | CN1CCC(O)N(c2cc(C(C)(C)C)no2)C1=O (centres unmarked) [I.1-290, 3-(3-tert-Butyl-1,2-oxazol-5-yl)-4-hydroxy-1-methyltetrahydropyrimidin-2(1H)-one] | – | – | – | – | – | – | – | – | – | – | – | – | – | Echinochloa crus-galli (Echinochloa crus-galli): 90%
3 | – | CC(=O)OC1CC2CCCN2C(=O)N1c1cc(C(C)(C)C)on1 (centres unmarked) [I.122-162] | 100 | 90 | 90 | 80 | 80 | 90 | 90 | 100 | 100 | 100 | 100 | 100 | 100 | Pharbitis purpurea (efficacy in %) (Pharbitis purpurea [4]): 80%; Polygonum convolvulus (efficacy in %) (Polygonum convolvulus [5]): 90%; Abutilon theophrasti (efficacy in %) (Abutilon theophrasti [8]): 100%; Avena fatua (efficacy in %) (Avena fatua): 80%; Hordeum murinum (efficacy in %) (Hordeum murinum): 100%; Setaria viridis (efficacy in %) (Setaria viridis [13]): 100%
4 | – | CC(=O)OC1CC(C)N(C)C(=O)N1c1cc(C(C)(C)C)on1 (single isomer, unassigned) [I.42-162_a] | 100 | 100 | 100 | 80 | 100 | – | – | – | – | – | – | – | – | Viola tricolor (efficacy in %) (Viola tricolor [16]): 100%
5 | 70 to 90 | CN1CC(C)(C)C(O)N(c2cc(C(C)(C)C)on2)C1=O (centres unmarked) [I.61-162, 1-(5-tert-Butyl-1,2-oxazol-3-yl)-6-hydroxy-3,5,5-trimethyltetrahydropyrimidin-2(1H)-one] | – | – | – | – | – | – | – | – | – | – | – | – | – | Amaranthus retroflexus (Amaranthus retroflexus [17]): 100%; Poa Annua (Poa annua [18]): 90%; Abutilon theophrasti (Abutilon theophrasti [19]): 100%; Matricaria inodora (Matricaria inodora [20]): 90%; Poa Annua (Poa annua [21]): 100%
6 | 50 to 70 | CN1CCC(O)N(c2cc(C(F)(F)F)ccn2)C1=O (centres unmarked) [I.1-449, 4-Hydroxy-1-methyl-3-[4-(trifluoromethyl)pyridin-2-yl]tetrahydropyrimidin-2(1H)-one] | – | – | – | – | – | 100 | 100 | 100 | 80 | 100 | 100 | 100 | 100 | Veronica persica (efficacy in %) (Veronica persica): 80%
